# Assay results: patent US9649300B2, “Inhibition of WNT, TGF beta and Hippo signaling pathways to treat cancer, organ fibrosis and metabolic disorders” (University of Pittsburgh—of the Commonwealth System of …, priority 2013, dated 2017)
# What was measured:
# [1] = test system: melanoma cell; assay: Cell response to doxorubicin with and without S21; format: cell-based; conditions: FIG. 4D
# Protocol: (§1) FIGS. 4A-4D. Inhibition of EMT, cell migration, proliferation and resistance to therapy by S21. FIG. 4A. Western blots showing inhibition of various EMT genes in melanoma cells WM266 exposed to the indicated concentrations of S21 for 24 hours. FIG. 4B. Cell monolayer scratch assay depicting inhibition of cell migration by S21. FIG. 4C. Effect of S21 on cell proliferation measured after 5 days of incubation. FIG. 4D. Cell response to doxorubicin was measured in the presence of and absence of S21. Data in panels C and D represent average of three determinations ±SE.
# (§2) Future studies will be needed to elucidate the underlying mechanism.
# [2] = test system: TGF beta; assay: TGF beta luciferase reporter in 293 cells; format: cell-based; conditions: for activity of TGF beta reporter: FIG. 5
# Protocol: (§3) FIG. 2. S21 as a common inhibitor of Wnt, TGF beta and Hippo. 293 cells were transfected with luciferase reporters corresponding to each pathway and then exposed to S21, the Wnt inhibitor Pyrvinium (PYR) or the TGF beta inhibitor SB-431 at the indicated concentrations. After 24 hours, the cells were lysed and luciferase activity measured. Data represent average of three replicates ±SE.
# (§4) FIG. 5. Effect of S21 versus Pirfenidone on activity of Wnt, TGF beta and Hippo reporters. 293 cells were transfected with luciferase reporters corresponding to the three pathways and then incubated with the indicated concentration of S21 or Pirfenidone for 24 hours. Luciferase activity was measured in the protein extract. Each point represents average of three determinations ±SE.
# (§5) By comparison, none of Wnt or TGF beta inhibitors had affected the Hippo pathway reporter.
# [3] = test system: Hippo pathway; assay: TEAD luciferase reporter (8xGT-II) as readout for Hippo signaling; format: cell-based; conditions: for activity of Hippo reporter: FIG. 5; for inhibition of Hippo signaling: FIG. 8
# Protocol: (§6) FIGS. 1A-1C. Screening for small molecules inhibitors of the Hippo pathway. FIG. 1A. Hippo associated luciferase reporter (8xGT-II) was used to screen a series of 30 thiadiazole derivatives. Cells transfected with the construct were incubated in the absence (c) or presence of the compounds at 10 μM for 24 hours. Luciferase activity expressed in arbitrary units (AU) was measured in protein extracts. Data represent average for three replicates ±SE. FIG. 1B. Structure of S21 compound. FIG. 1C. Activity of S21 on Hippo versus CMV-Luciferase reporter measured as described above.
# as §3, §4
# (§7) A TEAD luciferase reporter system was used as a readout for Hippo signaling, to screen a series of thiadiazole derivatives synthesized in our laboratory. For this, 293 cells transfected with the reporter construct were incubated in the absence or the presence of individual compounds at 10 μM concentration each for 24 hours. Proteins were then extracted and used as a source of enzyme of luciferase activity.
# [4] = target: T1, Lats1 (Homo sapiens, UniProt O95835); assay: Western blot, phosphorylation of core kinase Lats1; format: cell-based; conditions: dose-dependent, FIG. 3A
# T1 construct: endogenous in cells
# T1 sequence (O95835 1-1130): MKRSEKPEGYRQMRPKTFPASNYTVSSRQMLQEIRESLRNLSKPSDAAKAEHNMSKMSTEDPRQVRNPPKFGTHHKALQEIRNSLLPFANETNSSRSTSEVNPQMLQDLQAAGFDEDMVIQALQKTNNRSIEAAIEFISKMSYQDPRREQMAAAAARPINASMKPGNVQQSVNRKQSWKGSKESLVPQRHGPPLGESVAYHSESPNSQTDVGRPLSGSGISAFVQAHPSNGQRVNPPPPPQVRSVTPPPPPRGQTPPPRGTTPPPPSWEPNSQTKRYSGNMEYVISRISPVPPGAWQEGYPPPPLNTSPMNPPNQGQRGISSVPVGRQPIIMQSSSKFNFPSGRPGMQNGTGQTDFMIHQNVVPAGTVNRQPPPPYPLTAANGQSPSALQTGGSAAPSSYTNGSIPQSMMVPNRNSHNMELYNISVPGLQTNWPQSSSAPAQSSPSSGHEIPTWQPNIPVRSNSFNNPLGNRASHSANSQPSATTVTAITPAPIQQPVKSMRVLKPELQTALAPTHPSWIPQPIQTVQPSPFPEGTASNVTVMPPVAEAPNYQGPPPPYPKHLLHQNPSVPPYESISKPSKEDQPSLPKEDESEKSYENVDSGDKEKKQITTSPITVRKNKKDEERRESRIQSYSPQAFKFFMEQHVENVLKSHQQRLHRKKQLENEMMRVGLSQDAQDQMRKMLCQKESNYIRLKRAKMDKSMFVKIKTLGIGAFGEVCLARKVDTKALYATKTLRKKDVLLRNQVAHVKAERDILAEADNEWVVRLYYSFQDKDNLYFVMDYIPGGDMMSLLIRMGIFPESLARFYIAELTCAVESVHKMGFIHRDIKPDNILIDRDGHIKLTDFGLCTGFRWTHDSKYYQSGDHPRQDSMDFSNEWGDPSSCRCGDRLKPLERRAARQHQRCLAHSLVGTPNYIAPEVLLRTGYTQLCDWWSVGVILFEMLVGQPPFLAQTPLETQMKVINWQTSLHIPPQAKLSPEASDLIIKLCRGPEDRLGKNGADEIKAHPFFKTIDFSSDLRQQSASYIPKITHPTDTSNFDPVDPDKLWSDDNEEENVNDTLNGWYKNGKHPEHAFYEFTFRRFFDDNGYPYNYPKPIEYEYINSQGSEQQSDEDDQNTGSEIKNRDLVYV
# Protocol: (§8) FIGS. 3A-3B. Effect of S21 on key elements of the Hippo pathway. Western blot analysis was carried out to determine the effect of S21 on expression and phosphorylation of MST/Lats (FIG. 3A) and nucleocytoplasmic localization of YAP and beta catenin (FIG. 3B).
# (§9) To gain insights into the mechanism(s) by which S21 inhibits the Hippo pathway, its effect on activation of the core kinases MST1 and Lats1 was analyzed.
# [5] = test system: fibroblasts; assay: Expression of fibrotic markers (QPCR, Western blot); format: cell-based; conditions: RNA and protein level
# Text: FIGS. 6A-6B. S21 inhibits expression of pro-fibrotic and pro-EMT genes. FIG. 6A. QPCR analysis depicting expression levels of pro-EMT ad fibrosis genes in the absence and the presence of S21. FIG. 6B. Western blot analysis showing the effect of S21 on expression of fibronectin, collagen and vimentin. Beta catenin was used as a loading control.
# [6] = test system: melanoma cells WM266; assay: Western blots of EMT genes and downstream target genes; format: cell-based; conditions: WM266, 24 hours
# Protocol: as §1, §2
# [7] = test system: luciferase driven by the CMV promoter; assay: CMV-Luciferase reporter (specificity control); format: cell-based
# Protocol: as §6, §7
# [8] = test system: cell migration; assay: Cell monolayer scratch assay; format: cell-based; conditions: FIG. 4B
# Protocol: as §1, §2
# [9] = test system: YAP; assay: Western blot, nucleocytoplasmic localization of YAP; format: cell-based; conditions: FIG. 3B
# Protocol: as §8, §9
# [10] = test system: three melanoma and one colon cancer cell lines; assay: Cell proliferation after 5 days of incubation; format: cell-based
# Protocol: as §1, §2
# [11] = test system: Wnt; assay: Wnt luciferase reporter in 293 cells; format: cell-based; conditions: for activity of Wnt reporter: FIG. 5
# Protocol: as §3, §4, §5
# [12] = test system: beta catenin; assay: Western blot, nucleocytoplasmic localization of beta catenin; format: cell-based; conditions: FIG. 3B
# Protocol: as §8, §9
# [13] = target: T2, MST1 (Homo sapiens, UniProt Q13043); assay: Western blot, phosphorylation of core kinase MST1; format: cell-based; conditions: dose-dependent, FIG. 3A
# T2 construct: endogenous in cells
# T2 sequence (Q13043 1-487): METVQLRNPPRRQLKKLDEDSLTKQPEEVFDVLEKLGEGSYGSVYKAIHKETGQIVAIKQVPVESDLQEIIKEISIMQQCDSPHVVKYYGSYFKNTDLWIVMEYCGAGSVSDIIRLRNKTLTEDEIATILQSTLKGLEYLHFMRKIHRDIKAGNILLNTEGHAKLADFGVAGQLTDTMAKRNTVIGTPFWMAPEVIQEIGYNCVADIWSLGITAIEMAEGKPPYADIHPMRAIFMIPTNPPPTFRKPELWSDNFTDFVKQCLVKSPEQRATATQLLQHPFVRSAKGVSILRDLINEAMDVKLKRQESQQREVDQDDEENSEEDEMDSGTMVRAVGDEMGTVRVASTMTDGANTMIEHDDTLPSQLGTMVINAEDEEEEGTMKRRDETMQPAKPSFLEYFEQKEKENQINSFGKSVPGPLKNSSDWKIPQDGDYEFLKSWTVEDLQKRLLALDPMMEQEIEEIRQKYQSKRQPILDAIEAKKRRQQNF
# Protocol: as §8, §9
# [14] = test system: AMPK; assay: Phosphorylation (activation) of AMPK; format: cell-based; conditions: for activation of AMPK: FIG. 8
# Protocol: (§10) FIGS. 10A-10F. FIGS. 10A and 10B. Dose and time dependent effects of C19 on phosphorylation of AMPK. In FIG. 10B, C19 was used at 5 μM. FIG. 10C. Effect of AICAR on phosphorylation of AMPK. FIG. 10D. Confirmation in different cell lines. FIGS. 10E and 10F. Effect of C19 on phosphorylation of downstream AMPK targets ACC and UIK1.
# (§11) Investigation of the mechanism by which C19 exert its activity led to the discovery that, in addition to its effect on MST/Lats, this compound acts as a potent activator of the metabolic enzyme and tumor suppressor kinase AMPK (FIG. 10).
# [15] = oral, eight-week-old male untrained mice; cited from earlier work
# [16] = test system: Ulk1; assay: Phosphorylation of downstream AMPK target Ulk1; format: cell-based; conditions: FIG. 10F
# Protocol: as §10, §11
# [17] = test system: ACC; assay: Phosphorylation of downstream AMPK target ACC; format: cell-based; conditions: FIG. 10E
# Protocol: as §10, §11
# [18] = test system: melanoma cells WM266; assay: Tumor xenograft mouse model; format: in vivo
# Protocol: FIGS. 9A-9B. Effect of C19 (mg/Kg) on tumor growth (FIG. 9A) and body weight (FIG. 9B). Data represents 7 replicates ±SE. *p<0.05., **p<0.01.
# To obtain information regarding the efficacy of C19 in a tumor xenograft mouse model, nude mice (strain CD1) were injected subcutaneously with melanoma cells WM266. After tumors became palpable (˜5 mm in diameter), the mice were randomized into control and treatment groups (n=7). The control group was injected intraperitoneally with the vehicle (DMSO 3% in 200 μl of DMEM) and the treatment groups were injected with increasing doses of C19 (in mg/Kg) dissolved in 200 μl of vehicle solution. The animals received 3 injections starting on day 15 and separated by three days. Tumor volumes and body weight were measured on a daily basis.
# [19] = tested for up to 100 μM, data not shown
compound,measurement,setting,value
OCCCCOc1nsnc1-c1ccc(Cl)cc1 [S21],melanoma cell response to doxorubicin in presence of compound,[1],significantly enhanced
same,inhibition of TGF beta signaling reporter,"[2]; 293 cells, 24 hours, FIG. 2",remarkably inhibited
same,activity of TGF beta reporter,"[2]; 293 cells, 24 hours",dose dependent inhibition
same,inhibition of TEAD luciferase reporter activity (Hippo signaling),"[3]; 293 cells, 10 μM, 24 hours",strongest inhibition
same,activity of Hippo reporter,"[3]; 293 cells, 24 hours",dose dependent inhibition
same,inhibition of Hippo signaling,[3],inhibition
same,phosphorylation of Lats1,[4],induced phosphorylation
same,expression of Collagen,[5],dose dependent decrease
same,expression of Finbronectin,[5],dose dependent decrease
same,expression of EMT-associated gene Zeb1,[6],strongly inhibits
same,level of Cyclin D,[6],reduced
same,level of Hes,[6],reduced
same,level of Myc,[6],reduced
same,inhibition of luciferase driven by the CMV promoter,[7],did not inhibit
same,cell migration,[8],strongly inhibited
same,nuclear and cytoplasmic levels of YAP,[9],reduced nuclear localization and enhanced cytoplasmic levels
same,response of metastatic WM266 versus non-metastatic WM115,[10]; melanoma cell lines,responded better
same,anti-proliferative action,[10]; three melanoma and one colon cancer cell lines,anti-proliferative action
same,inhibition of Wnt signaling reporter,"[11]; 293 cells, 24 hours, FIG. 2",remarkably inhibited
same,activity of Wnt reporter,"[11]; 293 cells, 24 hours",dose dependent inhibition
same,nuclear and cytoplasmic levels of beta catenin,[12],reduced nuclear localization and enhanced cytoplasmic levels
same,phosphorylation of MST1,[13],induced phosphorylation
same,activation of AMPK,[14],activation
"NC(=O)c1ncn([C@@H]2O[C@H](CO)[C@@H](O)[C@H]2O)c1N [AICAR, 5-aminoimidazole-4-carboxamide 1-D-ribonucleoside]",increase in endurance without exercise,[15],44%
"Cc1ccc(=O)n(-c2ccccc2)c1 [Pirfenidone, reference compound]",activity of TGF beta reporter,"[2]; 293 cells, 24 hours",without effect
same,inhibition of TGF beta reporter,[2]; [19],no inhibition was detected
same,activity of Hippo reporter,"[3]; 293 cells, 24 hours",without effect
same,inhibition of Hippo reporter,[3]; [19],no inhibition was detected
same,activity of Wnt reporter,"[11]; 293 cells, 24 hours",without effect
same,inhibition of Wnt reporter,[11]; [19],no inhibition was detected
"OCCCCOc1nsnc1-c1ccc(Cl)c(Cl)c1 [C19, 4-((4-(3,4-dichlorophenyl)-1,2,5-thiadiazol-3-yl)oxy)butan-1-ol]",inhibition of Hippo signaling,[3],inhibition
same,phosphorylation of Ulk1,[16],induced phosphorylation
same,phosphorylation of ACC,[17],induced phosphorylation
same,inhibition of tumor growth,"[18]; 20 mg/Kg intraperitoneal, 3 injections from day 15",about 90%
same,tumor growth,"[18]; intraperitoneal, increasing doses, 3 injections from day 15",suppresses tumor growth in a dose dependent manner
same,signs of toxicity or death,[18]; throughout the experiment,No signs of toxicity or death
same,body weight compared to controls,"[18]; treatment groups, FIG. 9B",did not change significantly
same,activation of AMPK,[14],activation
same,potency on AMPK relative to AICAR,[14]; FIG. 10C,at least 10 times
same,effect on AMPK in different cell lines,[14]; FIG. 10D,validated
same,phosphorylation (activation) of AMPK,"[14]; concentration and time dependent, FIGS. 10A and 10B",induced phosphorylation
